In one data set the test system is MCF-7. Conditions: results published earlier, read-out: IC50 (MCF-7) of lead compounds A and B; cited from earlier work.
In another data set the test system is MDA-MB-231. As to conditions: results published earlier, read-out: IC50 (MDA-MB-231) of lead compounds A and B; cited from earlier work.
For the next data set, the system named is MDA-MB-231 cell line. The data set is described as follows: MTT antiproliferative assay, MDA-MB-231. As to conditions: for IC50: MDA-MB-231, 72 h, MTT; for Selective Index MDA-MB-231: SI = IC50 of MCF-10A/IC50 of MDA-MB-231. Type of data set: cell-based, human. On the procedure:
(§1) The compounds were studied for antiproliferative activity by standard MTT dye-reduction assay. Cell cultures from MCF-10A, MCF-7 and MDAMB-231 cell lines were incubated for 72 h in the presence of the tested substances in a wide range of concentrations. At the MCF-10A and MDA-MB-231 cell lines, compound 4 was applied in the range from 0.5 to 100 µg/mL, and all others from 4 to 1000 µg/mL.
(§2) All breast cell lines (MCF-10A, MCF-7 and MDA-MB-231) were purchased from the American Type Culture Collection—ATCC (Manassas, VA, USA). The MCF-7 and MDA-MB-231 were cultivated in Dulbecco’s Modified Eagle’s Medium (DMEM) supplemented with 10% fetal bovine serum (FBS), 1% sodium pyruvate, 1% MEM nonessential amino acids (NEAA) without antibiotics. The nontumorigenic breast cell line (MCF-10A) was cultivated in DMEM medium (Sigma-Aldrich, St. Louis, MO, USA) supplemented with 10% FBS, 1% sodium pyruvate, 1% nonessential amino acids (NEAA), 20 ng/mL human epithelia growth factor (hEGF), 10 μg/mL insulin, and 0.5 μg/mL hydrocortisone without antibiotics. All cell lines were maintained in a humidified atmosphere with 5% CO2 at 37 °C.
(§3) Using the standard MTT dye-reduction assay, described by Mosmann the antiproliferative activity was tested. The method is based on the metabolism of the tetrazolium salt MTT to insoluble formazan. The formazan absorption was registered using a microplate reader at λ = 540 nm. The measured absorption is an indicator of cell viability and metabolic activity. Antiproliferative activities were expressed as IC50 values (concentrations required for 50% inhibition of cell growth), calculated using nonlinear regression analysis (GraphPad Software, San Diego, CA, USA).

The next data set deals with BALB 3T3 cells. Description: 3T3 NRU phototoxicity test (irradiated). Type of data set: cell-based, mouse. As to conditions: CC50/PC50; PIF < 2 not phototoxic, ≥ 2 and < 5 probable phototoxicity, ≥ 5 phototoxic. From the text: (§4) Some organic compounds exposed to sunlight can be converted into phototoxins as a result of light-induced changes in energy state or degradation of the molecule. The estimation of phototoxicity can serve as an indicator of the photostability of the studied thienopyrimidines when irradiated with UV light and as evidence that their effect on cells is only due to the cytotoxicity and not to phototoxicity. The compounds were studied for cytotoxicity by the 3T3 Neutral Red […] (NRU) phototoxicity test based on a comparison of the cytotoxicity of a chemical when tested in the presence and absence of noncytotoxic exposure to UVA/vis light. The cells were incubated with the test substances at a variable concentration: for compound 4 from 0.5 to 100 μg/mL, and for all the rest from 15 to 4000 μg/mL for 24 h.
(§5) The light source used was a light emitting diode (LED) matrix, an artificial solar light simulator Helios-iO, model LE-9ND55-H—5500K (SERIC Ltd., Tokyo, Japan).
(§6) BALB/3T3 cells were cultured in 75 cm^2 tissue-culture flasks in DMEM, 10% FBS, 2 mM glutamine and antibiotics (penicillin 100 U/mL and streptomycin 100 µg/mL) at 37 °C, 5% CO2 and 90% relative humidity. Cytotoxicity/phototoxicity was assessed by validated BALB/3T3 clone A31 Neutral Red Uptake Assay (3T3 NRU test). Briefly, cells were plated in a 96-well microtiter plate at a density of 1 × 10^4 cells/100 µL/well and were incubated for 24 h. A wide concentration range of the test compounds was applied. In phototoxicity tests, 96-well plates were irradiated with dose 2.4 J/cm^2 and the cells were incubated for additional 24 h. After treatment with Neutral Red medium, washing and treatment with the Ethanol/Acetic acid solution, the absorption was measured on a TECAN microplate reader (TECAN, Grödig, Austria) at wavelength 540 nm.
(§7) Cytotoxicity/phototoxicity were expressed as CC50/PC50 values (concentrations required for 50% cytotoxicity/phototoxicity), calculated using nonlinear regression analysis (GraphPad Software, Prism 8.0.2 (263), San Diego, CA, USA). The CC50 values can be used to calculate the PIF (photoirritancy factor) for each test substance, according to the following formula:PIF = Cytotoxicity (CC50)/Phototoxicity (PC50)(6)

Data set [1] can be described thus: 3T3 NRU phototoxicity test (irradiated). Type of data set: cell-based, mouse. Conditions: mouse, BALB/3T3 clone A31 cells; BALB 3T3, irradiated 2.4 J/cm2, then 24 h; read-out: CC50 of Mean ± SD, Phototoxicity.
Excerpt: as §4, §5, §6, §7

The nature of data set [2]: 3T3 Neutral Red Uptake (NRU) cytotoxicity test. Type of data set: cell-based, mouse. As to conditions: mouse, BALB/3T3 clone A31 cells; for CC50 at 24 h: BALB 3T3, 24 h, no irradiation, read-out: CC50 of Mean ± SD, Cytotoxicity.
The subject of another data set is MCF-10A cell line. Description: MTT antiproliferative assay, MCF-10A. Type of data set: cell-based. Conditions: Homo sapiens, 72 h. The procedure: as §1
In order to determine antitumor activity, as a reliable model and a control we used the MCF-10A cell line (normal human mammary epithelial cells).
as §2, §3
A general note: Tetrazolium dyes change colour on reduction, which living cells bring about.

A further data set concerns MCF-7 cell line. Description: MTT antiproliferative assay, MCF-7. Type of data set: cell-based, human. As to conditions: for IC50: Homo sapiens, MCF7. The procedure: as §1
The MCF-7 cell line was treated with compounds 2, 3 and 4 at concentrations from 0.5 to 100 µg/mL, and all others from 4 to 1000 µg/mL. The antiproliferative activity expressed in % relative to the negative control (untreated cells accepted as a 100% viable or 0% antiproliferative activity) was determined and shown on Figure 6.
as §2, §3

The next data set deals with Aurora B kinase. Set-up: method as in PMID 21778056. Conditions: Figure 1; read-out: Aur B IC50; cited from earlier work.
A further data set relates to KDR. Set-up: method as in doi:10.1016/j.medidd.2019.100009. Conditions: Figure 1; cited from earlier work.
A further data set deals with FGFR1. Conditions: Figure 1; cited from earlier work.
The subject of the next data set is EGFR. Set-up: method as in PMID 31051400. Conditions: cited from earlier work.
The mark [3] stands for this setting: Homo sapiens, read-out: IC50 Antiproliferative Activity MDA-MB-231 in µM (converted).
The mark [4] stands for this setting: Homo sapiens, read-out: IC50 ± SD Antiproliferative Activity MDA-MB-231.
Where [5] appears, read: read-out: IC50 Antiproliferative Activity MCF-10A (converted).
The mark [6] stands for this setting: read-out: IC50 ± SD Antiproliferative Activity MCF-10A.
Setting [7] is: MCF-7, 72 h, MTT, read-out: IC50 Antiproliferative Activity MCF-7 in µM (converted).
Setting [8] is: MCF-7, 72 h, MTT, read-out: IC50 ± SD Antiproliferative Activity MCF-7.

In brackets after ≈: the same amount, converted by molar mass. Read-outs that look alike come from different tables or passages of the source. Some results are limits rather than exact numbers.

On to `CCOC(=O)c1sc2nc(CCn3c(=N)[nH]c4ccccc43)[nH]c(=O)c2c1C` [B], for which the IC50 was 0.21 µM in the data set on MCF-7 and 0.32 µM in the data set with MDA-MB-231.

`CCOC(=O)c1sc2nc(-c3cccnc3)nc(N)c2c1C` [Compound 8, Ethyl 4-Amino-5-methyl-2-(pyridin-3-yl)thieno [2,3-d]Pyrimidine-6-carboxylate] showed a melting point of 241 to 242 °C.

For `CCOC(=O)c1sc2nc(Cc3ccccc3)nc(N)c2c1C` [Compound 2, Ethyl 4-Amino-2-benzyl-5-methyl-thieno[2,3-d]pyrimidine-6-carboxylate], the melting point lay in the range of 159 to 161 °C. Moreover, the IC50 with MDA-MB-231 cell line (setting [3]) was 56 µM. For the same molecule, in the data set on MDA-MB-231 cell line (setting [4]), the IC50 was 18.3 ± 1.58 µg/mL. Besides, the “Selective Index MDA-MB-231” value in the data set with MDA-MB-231 cell line is 3.7. The “PIF (Photoirritancy factor)” value in the data set with BALB 3T3 cells was found to be 1.9. In addition, the 50% cytotoxic concentration (CC50) at 24 h in [1] turned out to be 632 ± 35.6 µg/mL (≈ 1930 µM). For the same molecule, the CC50 at 24 h in [2] is 1210 ± 103 µg/mL (≈ 3700 µM). The IC50 in the data set with MCF-10A cell line (setting [5]) was 210 µM. In the data set with MCF-10A cell line (setting [6]), the IC50 was 67.8 ± 9.1 µg/mL. Further, the IC50 in the data set on MCF-7 cell line (setting [7]) is 13 µM. The IC50 with MCF-7 cell line (setting [8]) stood at 4.3 ± 0.11 µg/mL.

As for `CCOC(=O)c1sc2nc(-c3cc(OC)c(OC)c(OC)c3)nc(N)c2c1C` [Compound 4, Ethyl 4-Amino-5-methyl-2-(3,4,5-trimethoxyphenyl)thieno [2,3-d]Pyrimidine-6-carboxylate], the IC50 in the data set with MDA-MB-231 cell line (setting [3]) was 16 µM; with MDA-MB-231 cell line (setting [4]), 6.43 ± 0.95 µg/mL; in the data set with MCF-10A cell line (setting [5]) it was 6.8 µM; in the data set with MCF-10A cell line (setting [6]), 2.74 ± 0.13 µg/mL; in the data set on MCF-7 cell line (setting [7]) it was 5 µM; in the data set on MCF-7 cell line (setting [8]), 2.01 ± 0.07 µg/mL. Besides, the “PIF (Photoirritancy factor)” value with BALB 3T3 cells was found to be 0.7. In addition, the half-maximal cytotoxic concentration (CC50) at 24 h in data set [1] worked out at 11.8 ± 0.8 µg/mL (≈ 29.4 µM); in data set [2], 8.37 ± 0.6 µg/mL (≈ 20.7 µM).

As for `CCOC(=O)c1sc2nc(Cc3ccc([N+](=O)[O-])cc3)nc(N)c2c1C` [Compound 3, Ethyl 4-Amino-5-methyl-2-(4-nitrobenzyl) Thieno [2,3-d] Pyrimidine-6-carboxylate], the IC50 in the data set on MDA-MB-231 cell line (setting [3]) is 250 µM; in the data set with MDA-MB-231 cell line (setting [4]), 98.2 ± 4.73 µg/mL; in the data set with MDA-MB-231 cell line (read-out: IC50 Antiproliferative Activity MDA-MB-231 in µM (converted)), 260 µM; with MCF-10A cell line (setting [5]) it was 440 µM; with MCF-10A cell line (setting [6]) it was 165 ± 8.81 µg/mL; in the data set on MCF-7 cell line (setting [7]) it was 23 µM. The IC50 in the data set with MCF-7 cell line (setting [8]) came to 8.58 ± 0.55 µg/mL. In addition, the CC50 at 24 h in data set [1] stood at 578 ± 58.7 µg/mL (≈ 1550 µM); in data set [2], 1160 ± 57.8 µg/mL (≈ 3100 µM).

In the case of `Cc1ccccc1NC(=O)NCc1cccc(NC(=O)c2csc3ncnc(N)c23)c1` [III], the IC50 at Aurora B kinase is 0.0038 µM.

As for `Cc1cccc(NC(=O)Nc2ccc(-c3csc4ncnc(N)c34)cc2)c1` [IV], the IC50 in the data set on KDR is 0.003 µM.

On to `Oc1cccc(Nc2ncnc3scc(-c4ccccc4)c23)c1` [VI], for which the IC50 with FGFR1 is 0.18 µM.

For `C=CC(=O)N1CCc2c(sc3ncnc(NC(CO)c4ccccc4)c23)C1` (stereo not shown) [IX], the IC50 in the data set on EGFR (Figure 1) is 0.008 µM.

Regarding `Oc1cccc(Nc2ncnc3sc(-c4ccccc4)cc23)c1` [VII], the IC50 in the data set on FGFR1 is 0.16 µM.

`CCOC(=O)c1sc2nc(-c3ccccn3)nc(N)c2c1C` [Compound 7, Ethyl 4-Amino-5-methyl-2-(pyridin—2-yl) Thieno[2,3-d]pyrimidine-6-carboxylate] had a melting point of 262 to 264 °C. In addition, the IC50 in the data set on MDA-MB-231 cell line (setting [4]) is over 1000 µg/mL. For the same molecule, the “PIF (Photoirritancy factor)” value in the data set on BALB 3T3 cells was determined as 1.08. Also, in data set [1], the half-maximal cytotoxic concentration (CC50) at 24 h worked out at 2550 ± 75.1 µg/mL (≈ 8120 µM). Moreover, the 50% cytotoxic concentration (CC50) at 24 h in [2] amounted to 2750 ± 64.3 µg/mL (≈ 8760 µM). Further, in data set [2] (BALB 3T3, converted from µg/mL, read-out: IC50 cytotoxicity against BALB 3T3), the IC50 at 24 h was found to be 8800 µM. In addition, the IC50 with MCF-10A cell line (setting [6]) is over 1000 µg/mL. Also, the IC50 in the data set with MCF-7 cell line (setting [8]) was over 1000 µg/mL.

Regarding `CCOC(=O)c1sc2nc(CCn3c(=N)n(CCc4nc5sc(C(=O)OC)c(C)c5c(=O)[nH]4)c4ccccc43)[nH]c(=O)c2c1C` [A], the IC50 with MCF-7 was 0.074 µM; with MDA-MB-231, 0.16 µM; in the data set on MCF-7 cell line (read-out: pCI50 in MCF-7 test (converted)), 0.0741 µM.

`N.N.[Cl][Pt][Cl]` [Cisplatin, reference compound]: in the data set on MDA-MB-231 cell line, the “Selective Index MDA-MB-231” value came to 25. Moreover, in the data set with MCF-7 cell line (SI = IC50 of MCF-10A/IC50 of MCF-7), the “Selective Index MCF-7” value came out at 2.36.

`Fc1ccccc1Nc1ncnc2sc3c(c12)CCCC3` [X]: the “EGFR/HER2 inhibitory activity IC50 (in words)” value with EGFR is recorded as “in the nanomolar range”.

Take `Cc1sc2ncnc(N)c2c1C(=O)Nc1ccc(NC(=O)Nc2ccccc2)cc1` [II]: on Aurora B kinase, the IC50 is 0.0002 µM.

One may read the melting point as the temperature, or range, at which the solid turns liquid. For orientation: CC50 means the concentration that lowers cell viability or growth by half.

Source of the values: PMC9148072, “Design, Cytotoxicity and Antiproliferative Activity of 4-Amino-5-methyl-thieno[2,3-d]pyrimidine-6-carboxylates against MFC-7 and MDA-MB-231 Breast Cancer Cell Lines” (Molecules, 2022).
